According to patent US20210179561A1, “ACID ADDITION SALTS OF APOMORPHINE, PHARMACEUTICAL COMPOSITIONS CONTAINING THE SAME, AND METHODS OF USING THE SAME” (Sunovion Pharmaceuticals Inc., priority 2018, published 2021):
Counter-ions that a name gives are not always drawn.

Columns and labels:
[1] = Approximate aqueous solubility of apomorphine salts; settings: water
[2] = Dynamic vapor sorption/desorption (DVS); format: physicochemical; settings: for DVS weight change at 5% equilibration: 5% RH equilibration; for DVS weight loss from 95 to 5% RH: desorption 95 to 5% RH; for DVS weight gain from 5 to 95% RH: sorption 5 to 95% RH
Protocol: Dynamic vapor sorption (DVS) data were collected on a VTI SGA-100 Vapor Sorption Analyzer. NaCl and PVP were used as calibration standards. Samples were not dried prior to analysis. Sorption and desorption data were collected over a range from 5% to 95% RH at 10% RH increments under a nitrogen purge. The equilibrium criterion used for analysis was less than 0.0100% weight change in 5 minutes with a maximum equilibration time of 3 hours. Data were not corrected for the initial moisture content of the samples.

[3] = Intrinsic dissolution (Wood's apparatus, HPLC) in pH 4.5 acetate buffer or artificial saliva; settings: for dissolution rates compared with apomorphine glycolate and apomorphine sulfamate: in words
Protocol: Samples were quantitated using HPLC.
Dissolution experiments were performed using a VanKel VK7010 dissolution tester equipped with a VK750D heater/circulator. […] Approximately 150 mg of acid addition salt of apomorphine salt were compressed with an applied load of approximately 1000 pounds for 1 minute in the Wood's apparatus using a hydraulic press. The dissolution medium was either pH 4.5 acetate buffer or artificial saliva. The medium (900 mL) was equilibrated to 37° C.±0.5° C. and degassed by sparging with helium for ca. 2 minutes at the start of each experiment. The disks were rotated at 75 rpm. Sampling of 1 mL aliquots was performed at the given timepoints using a 10 mL syringe equipped with a stainless steel cannula.
The sample aliquots were analyzed by HPLC for acid addition salt of apomorphine content. HPLC analyses were performed using an Agilent 1100 series liquid chromatograph equipped with a diode array or variable wavelength detector, degasser, quaternary pump, and an autosampler. The chromatographic column was a 4.6×50 mm Luna C18(2) column with 5 μm packing (Phenomenex). The column temperature was set to 25.0° C., and the detector wavelength was 274 nm. The autosampler temperature was set to 5.0° C. The injection volume was 25.0 μL. Mobile phase was 80:20 0.2% trifluoroacetic acid:acetonitrile.
Intrinsic dissolution experiments were conducted in duplicate for apomorphine hydrochloride salt in pH 4.5 acetate buffer and artificial saliva. Aliquots (1 mL) were drawn from the dissolution vessel at time intervals indicated in Table 6, transferred to an HPLC vial, and the dissolution values (mass per unit area) of the apomorphine salt was determined for each aliquot (see Table 6). The determined dissolution values were plotted against the time intervals, and the slope of the linear curve was determined. This slope corresponds to the calculated intrinsic dissolution rate (IDR) for the apomorphine salt.

[4] = solution from aqueous solubility test
physchem = settings: water
[5] = Artificial saliva, 37° C., Table 5 (mean of two tests except glycolate)
[6] = pH 4.5 acetate buffer, 37° C., Table 5 (mean of two tests except glycolate)

Row | Compound | Approximate Aqueous Solubility [1] [mg/mL] | DVS weight change at 5% equilibration [2] [%] | DVS weight loss from 95 to 5% RH [2] [%] | DVS weight gain from 5 to 95% RH [2] [%] | IDR [3, 5] [mg/cm^2/min] | IDR [3, 6] [mg/cm^2/min] | dissolution rates compared with apomorphine glycolate and apomorphine sulfamate [3] | also measured
1 | apomorphine methylbenzoate | <1 |  |  |  |  |  |  | 
2 | apomorphine glycolate |  | 0.0 | 0.5 | 0.5 | 10.862 | 34.775 |  | Dissolution in pH 4.5 Acetate Buffer ([3]; 1 min, single experiment): 14.548 mg/cm^2; Dissolution in Artificial Saliva ([3]; 3 min, single experiment): 42.192 mg/cm^2; Dissolution in pH 4.5 Acetate Buffer ([3]; 3 min, single experiment): 38.801 mg/cm^2; Dissolution in Artificial Saliva ([3]; 3.5 min, single experiment): 47.686 mg/cm^2; Dissolution in pH 4.5 Acetate Buffer ([3]; 3.5 min, single experiment): 51.432 mg/cm^2; Dissolution in Artificial Saliva ([3]; 4 min, single experiment): 53.878 mg/cm^2; Dissolution in pH 4.5 Acetate Buffer ([3]; 4 min, single experiment): 72.492 mg/cm^2; Dissolution in Artificial Saliva ([3]; 4.5 min, single experiment): 58.232 mg/cm^2; Dissolution in pH 4.5 Acetate Buffer ([3]; 4.5 min, single experiment): 89.739 mg/cm^2; IDR ([3]; artificial saliva, single experiment): 10.862 mg/cm^2/min; IDR ([3]; pH 4.5 acetate buffer, single experiment): 34.775 mg/cm^2/min
3 | apomorphine sulfamate |  | 0.0 | 25.4 |  | 16.873 | 19.598 |  | DVS weight gain from 5 to 85% RH ([2]; sorption 5 to 85% RH): 1.0%
4 | CC(C)C(=O)O.CN1CCc2cccc3c2C1Cc1ccc(O)c(O)c1-3 (stereo not shown) [Isobutyrate, apomorphine isobutyrate] |  | 0.0 | 0.2 | 0.1 | 0.305 | 1.576 | significantly lower | 
5 | apomorphine glutarate | 3 |  |  |  |  |  |  | Approximate pH of Aqueous Solution [4]: 6
6 | CN1CCc2cccc3c2[C@H]1Cc1ccc(O)c(O)c1-3 [Hydrochloride, apomorphine hydrochloride, reference compound] |  |  |  |  | 0.582 | 2.643 | significantly lower | solubility (physchem): ~21 mg/mL
